{"source": "patent US8663715B2", "about": "“Compositions, products, therapeutic uses and procedures for the production and/or crystallization of extracts of Encelia canescens LAM (coronilla de fraile)” (Naturaleza Y Fe Ldta, priority 2010, dated 2014)", "key": {"[1]": {"experiment": "Antioxidant evaluation in system lacase-ABTS", "format": "biochemical", "method": "In addition, the antioxidant capacity was analyzed using the system lacase-ABTS (2,2-azino-bis-3-ethyl-benzo-thiazolin-6-sulfonic) that allows to establish in a comparative way the oxidation of substrates, denoting of indirect way the antioxidant capacity of a sample (Table 7)."}, "[2]": {"tested_on": "CF-1 strain mice", "experiment": "Oral analgesia: abdominal twisting induced by acetic acid", "format": "in vivo", "settings": "extract 200 mg/kg in arabic gum, dose of reference drug not given"}, "[3]": {"tested_on": "CF-1 strain mice", "experiment": "Topical analgesic activity: tail formalin test", "format": "in vivo", "settings": "topical 5% solution; from medians of treated and control group", "method": "The in vivo biological study evaluated the toxicity, oral analgesic activity and topical analgesic activity in the global methanolic extract of Encelia canescens Lam. For these assessments not inbred males CF-1 strain mice were used, whose weight varied between 14 to 20 g and age between 30 to 35 days. In all evaluations, animals were kept in fasting for 12 hours prior to each test with water ad libitum at room temperature.\nEach test was carried out with 10 animals, leaving 2 of them as controls, adding these to a “pool” of animal controls, in total were a group of 16 control animals. At the end of the tests, the animals were sacrificed by cervical dislocation, a painless method.\nFor all tests, the pharmacological effect was calculated using the values of the median, as a measure of central tendency of the data and standard error of the median (SEM) as measure of dispersion.\nResults were analyzed by the non-parametric statistical method of Wilcoxon for independent data (Hollander and Wolfe, 1973), considering significant if its p≦0.05.\nThis test is intended to determine the analgesic activity via topical of global methanol extract (EMG) of Encella canescens Lam. […] Then, the time of licking which makes the mouse at the site of injection for five minutes, was counted. […] The topical analgesic activity was calculated using the following formula. % D=(Cm/Cc)×100 where: % D: percentage of pain. […]"}}}
{"smiles": "Cc1c(C)c2c(c(C)c1O)CCC(C)(C(=O)O)O2", "note": "(stereo not drawn) [Trolox ®, Trolox]", "values": [{"measurement": "Antioxidant activity IC50", "setting": "[1]", "result": 1.97, "unit": "mg/mL"}]}
{"smiles": "COc1ccc2cc([C@H](C)C(=O)O)ccc2c1", "note": "[Naproxen Sodium, Naproxen sodium]", "values": [{"measurement": "% E percentage of analgesic effect (with median, final)", "setting": "[2]", "result": 70, "unit": "%"}]}
{"smiles": "CC(C)Cc1ccc(C(C)C(=O)O)cc1", "note": "(stereo not drawn) [Ibuprofen]", "values": [{"measurement": "% AAT percentage of the topical analgesic activity (% A 1)", "setting": "[3]", "result": 76.53, "unit": "%"}]}
